From patent publication US20020155172A1, “Methods and compounds for decreasing cell toxicity or death” (priority 2000, published 2002)

What was measured:
[1] = tested on: Q79-expressing HeLa cells; test: Turnover of S35-labeled expanded polyglutamine repeats; type: cell-based
Protocol: FIG. 8A is a set of scanned autoradiograms showing the effect of Congo red on expanded polyglutamine repeat turn-over, as assessed by relative levels of S^35 labeled polyQ (Q79) protein, with or without Congo red treatment. Q79-HA expressing cells were metabolically labeled with S^35 methionine for one hour. Cells were harvested one and 24 hours after labeling. PolyQ protein was immunoprecipitated with an anti-HA antibody, and the proteins were separated by electrophoresis before blotting.
We next determined whether inhibition and disruption of Q79 oligomers changed its turnover kinetics by measuring pulse-S^35-labeled polyglutamine levels in the presence or absence of Congo red.

[2] = tested on: polyglutamine aggregates of HA-Q79-GFP expressing cells; test: Filter assay (0.2 μm acetate filter); type: cell-based
Protocol: FIG. 6D is a scanned image of a filter showing the effect of Congo red on pre-formed oligomers as assessed by the filter assay described herein. Cells were treated with PBS or 100 μM of Congo red 6 hours after transfection with Q79-GFP. Lysates from these cells were obtained 42 hours later, and passed through a 0.2 micron pore filter. In addition, Q79 aggregates were treated with Congo red after they were recovered from cells to test for disruption of pre-formed aggregates.
FIG. 7C is an image of an immunoblot of lysates from Q79 expressing cells that were treated with PBS or Congo red during or after transfection, as indicated in the Figure and passed through a 0.2 micron filter. Endogenous caspase-8 and the adapter protein FADD were trapped in the filter in cell lysates containing oligomerized polyglutamine repeats, and probed using a caspase-8 or FADD antibody.
To further confirm the ability of Congo red to inhibit the formation of polyglutamine aggregates, as well as to disrupt preformed aggregates, we analyzed the state of polyglutamine aggregation by examining equal aliquots of total lysates from Congo-red- or vehicle-treated HA-Q79-GFP expressing cells, or the lysates that were treated with Congo red or vehicle after cell lysis. The cell lysates were passed through a 0.2 μm acetate filter and then visualized by immunostaining with anti-HA antibody (FIG. 6D).

[3] = tested on: wild type mice and R62 mice; test: Tolerability of Congo red in mice; type: in vivo
Protocol: The latter procedure involved administration of 0.25 μl of the drug (1 mg/ml in 0.4% DMSO) per hour, for a period of at least 28 days. The treatment began at the latter part of the seventh week. When treatment began, although very little motor symptomology was observed, tremors were becoming apparent. Polyglutamine inclusions were readily detected at the beginning of treatment. The effect of Congo red on the polyglutamine-induced toxicity in muscle strength in the animal model R62 was quantified by the use of a rotorod.
(§1) In addition, the ability of Congo red to inhibit the formation as well as to disrupt preformed polyglutamine oligomers allowed us to examine the role of polyglutamine aggregates in neuronal dysfunction and degeneration characteristic of polyglutamine expansion diseases. In these studies, we used the animal model of Huntington's disease (R62), which expresses the truncated form of huntingtin with 139 CAG repeats Mangiarini et al. (supra). We took advantage of our finding that in addition to inhibiting polyglutamine oligomerization, Congo red also disrupts pre-formed oligomers, thus allowing assessment of the impact of Congo red on disease progression after formation of polyglutamine aggregates and the onset of symptoms. R62 transgenic mice and CBAxC57B1/6 F1 wild type littermates were obtained from Jackson Laboratories (Bar Harbor, Me.) at the age of five weeks. […]

R62 mice [4] = test: EM48 immunostaining of polyglutamine aggregates in brain; type: in vivo
Protocol: To test whether Congo red can disrupt and inhibit the formation of expanded polyglutamine oligomers in vivo, we analyzed the brain samples from control- and Congo red-treated […] mice. Mice were anesthetized with isoflurane, perfused intracardially with 4% paraformaldehyde in phosphate buffered saline (pH 7.4). The brain was removed and washed several times in PBS before overnight incubation in PBS containing 30% sucrose, and was then embedded in OTC (Sigma, MO.). Cryostat frozen sections were washed in PBS, and non-specific binding was blocked with 5% normal goat serum in PBS containing 0.1% Triton. Sections were stained using an anti-EM48 antibody at a 1:1000 dilution, and immunoreactivity was detected using the ABC kit, as described by the manufacturer (Vector, Co.). Some slides were lightly counter stained with hematoxylin.

R62 mice [5] = test: Survival; type: in vivo; conditions: infused intraperitoneally
Source text: FIG. 10G is a graph of the effect of PBS (vehicle; delivered intraperitoneally) or Congo red, infused intraperitoneally, on survival of HD transgenic mice.
as §1
The initial abnormal neurological signs of R62 mice include dyskinesia of the hindlimbs when mice were suspended by the tail, and irregular gait. […] The effect of Congo red on motor performance in R62 mice was also assessed by rotarod studies. […]

**Q.** Which results are given for `Nc1c(/N=N/c2ccc(-c3ccc(/N=N/c4cc(S(=O)(=O)O)c5ccccc5c4N)cc3)cc2)cc(S(=O)(=O)O)c2ccccc12` [Congo red, diphenyldiazo-bis-alpha-napthylaminesulfonate]?
**A.** steady state levels of HA-Q79 ([1]; Western blot, compared to negative controls): only slightly reduced steady state levels; level of S35-labeled polyglutamine ([1]; after chase for 24 hours, versus control cells): more than two fold lower; expression (synthesis) of expanded polyglutamine ([1]; one hour after chase): did not prevent the expression of expanded polyglutamine; turnover rate of S35-labeled Q79 ([1]; versus control cells): at least a two fold higher turnover rate; polyglutamine aggregates retained by 0.2 μm filter, lysates treated ([2]; cell lysates treated with Congo red after cell lysis): undetectable; polyglutamine aggregates retained by 0.2 μm filter, cells treated ([2]; cells treated with Congo red (100 μM) 6 hours after transfection): undetectable; FADD and caspase-8 in a complex retained by 0.2 μm filter ([2]; lysates of Q79 expressing cells): not in Congo red-treated lysates; gross morphological abnormalities or symptoms ([3]; IP or ICV infusion, normal wild type mice or pre- or post-symptomatic R62 mice): no gross morphological abnormalities or induction of any obvious symptoms; drug toxicity ([3]; intraperitoneal injection up to 13 mg/kg every 48 hours for two weeks): no obvious drug toxicity; EM48 positive polyglutamine aggregates in the cortex and hippocampus (R62 mice [4]; R62 mice): reduction of EM48 positive polyglutamine aggregates; expanded polyglutamine repeats in the basal ganglia (EM48) (R62 mice [4]; R62 mice 12.5 weeks old): Extensive clearance of expanded polyglutamine repeats; mean survival length (R62 mice [5]): 106 days
